Patent US20260109674A1, “ALLOSTERIC MODULATION OF MUSCARINIC ACETYLCHOLINE RECEPTOR EFFICACY” (The University of Toledo, priority 2022, published 2026)
Where two headings read alike, the source gives them in different places.

Columns and labels:
[1] = tested on: wild-type zebrafish larvae; assay: General locomotor assay in zebrafish larvae (locomotor activity, repetitive behaviors); type: in vivo, Danio rerio; settings: Table 3; tested at 1 μM due to toxicity at 10 μM (footnote a)
Description: Five days post fertilization (dpf) zebrafish larvae were exposed to a range of nonlethal concentrations of the compounds in a 24-well plate with appropriate controls. The movement of each larval zebrafish was monitored with the Noldus behavior recording system (Noldus Information Technology, Leesburg VA) and quantified using EthoVision® XT 15 software (Noldus Information Technology, Leesburg VA). The plate was immediately placed in the incubator for a 30-minute exposure period. After 30 minutes, the plate was transferred to the Noldus system and swimming behavior was recorded in 100% light for 30 minutes to measure spontaneous swimming behavior. The light was switched off for 10 minutes (dark period) and then switched on for 10 minutes (light period), which was then repeated for two additional cycles. In total, the larvae were exposed to three cycles of alternating 10-minute dark and light periods (100% darkness-to-100% light). […]
All data for exposure and the behavioral end points were analyzed by one-way ANOVA (factor: drug conc) followed by a Dunnett's multiple comparisons test for post hoc significance between drug concentration and control group. Statistically significant differences are noted as follows: *, p<0.05; **, p<0.01; ***, p<0.001.

[2] = tested on: wild-type zebrafish larvae; assay: Maximum tolerated concentration (MTC) determination in zebrafish larvae; type: in vivo, Danio rerio; settings: after 24-hour exposure; Table 3
Description: Determination of maximum tolerated concentration was completed by placing 5 days post fertilization (dpf) wild-type zebrafish larvae in a 24 well plate at 6 fish per well, and one compound concentration per well. […] Death was determined by the absence of heartbeat. Additional endpoints were used to assess toxicity at non-lethal concentrations such as startle capacity (poke stimulus), abnormalities in swimming behavior (loss of dorsoventral balance), and gross morphological deformities (bent body). […] The MTC determination was used to select three doses of each compound (low, medium, high dose) to be used in behavioral assays.

[3] = target: T1, M1 muscarinic receptors expressed in CHO cells (Homo sapiens, UniProt P11229); assay: [3H]-arachidonic acid release screen with and without ACh and modulator; type: cell-based; settings: for Modulation of ACh activity (in words): [3H]AA release, modulator 10 μM
T1 construct: expressed in transfected cells; host or cells: CHO (CHO-hM1, stably transfected)
T1 sequence (P11229 1-460): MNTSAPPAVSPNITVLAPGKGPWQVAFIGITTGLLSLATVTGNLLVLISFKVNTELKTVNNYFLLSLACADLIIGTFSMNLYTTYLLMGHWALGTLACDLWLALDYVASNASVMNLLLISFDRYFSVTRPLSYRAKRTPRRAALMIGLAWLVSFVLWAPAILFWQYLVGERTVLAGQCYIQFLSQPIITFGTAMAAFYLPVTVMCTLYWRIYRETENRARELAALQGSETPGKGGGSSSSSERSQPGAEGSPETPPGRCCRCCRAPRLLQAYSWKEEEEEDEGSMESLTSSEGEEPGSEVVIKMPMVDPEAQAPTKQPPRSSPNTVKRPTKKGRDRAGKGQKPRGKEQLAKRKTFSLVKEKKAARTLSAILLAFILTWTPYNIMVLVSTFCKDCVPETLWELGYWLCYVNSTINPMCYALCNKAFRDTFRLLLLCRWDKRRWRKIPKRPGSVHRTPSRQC
Description: CHO cells expressing human M1 muscarinic receptors were cultured at 37° C. in a 5% CO2 atmosphere in F12 medium supplemented with 5% fetal bovine serum, 100 units/mL penicillin, and 100 μg/mL streptomycin.
Measurement of [^3H]AA release was performed. Stably transfected CHO-hM1 or CHO-hM3 cells were seeded on 24-well plates (Greiner Bio-One GmbH, Frickenhausen, Germany) at a density of 5.0×10^4 cells/well in 0.5 ml of F-12 medium. Cells were incubated until they attached (approximately 3 h), followed by the addition of [^3H]AA to a final concentration of 0.05 μCi of [^3H]AA per well. The cells were then grown for 16 to 20 h before the assay was performed. [^3H]AA release was measured in Eagle's basal medium with 20 mM HEPES and 2 mg/ml fatty acid-free bovine serum albumin (EM-BSA). Cells were rinsed twice with EM-BSA, followed by the addition of EM-BSA media containing experimental agents and incubated for 1 h at 37° C. The assay was terminated by aspiration of the media, and the amount of [^3H]AA released was determined by liquid scintillation counting (Beckman-Coulter LS6500).
For some assays, pretreatment with phenoxybenzamine (POB) was employed, as indicated, to reduce the number of available receptors per cell. Stock POB was made up at 10 mM in ethanol and stored at −20° C. Each well was pretreated with 0.5 ml of the appropriate concentration in PBS with 1 mM CaCl2 and 1 mM MgCl2 (PBS++) for 30 min at 37° C., followed by 5 washes with PBS++. After pretreatment, the normal protocol was followed as above.
Tabulated [^3H]AA release data are represented as a fraction of maximal release in the presence of 100 μM ACh or as the fraction of release elicited by the appropriate concentration of ACh alone, as indicated dose-response curves were normalized to the maximal response of ACh without allosteric ligand. Some response curves were analyzed using the empirical four-parameter equation: […]
Disintegration per minute (DPM) values for a single compound were obtained in triplicate, and each compound was evaluated on three separate 24-well plates. The mean values for each condition from each of the three 24-well plates were used for the statistical analysis. The baseline mean was subtracted from each value, then normalized to the mean response produced by 100 μM ACh (set at 1.0). Statistical analyses were completed on the normalized values via one-way repeated measures ANOVA with Tukey's post hoc test. Statistically significant differences are noted as follows: *, p<0.05; **, p<0.01; ***, p<0.001.

[4] = 10 μM modulator, 0.1 μM ACh, Table 1
[5] = 10 μM modulator, 100 μM ACh, Table 1

SMILES | Angular Velocity [1] | Total Distance Moved [1] | Variance of Turn Angle [1] | Maximum Tolerated Concentration [2] | Ratio of response of ACh with modulator to response of ACh alone, 0.1 μM ACh [3] | Ratio of response of ACh with modulator to response of ACh alone, 100 μM ACh [3] | Stimulation of [3H]AA release, No ACh (fraction of stimulation above the control) ([3]; 10 μM modulator, Table 1) | Modulation of ACh activity (in words) [3] | Ratio of response of ACh with modulator to response of ACh alone, 0.1 μM ACh [3, 4] | Ratio of response of ACh with modulator to response of ACh alone, 100 μM ACh [3, 5]
CCCCc1oc2ccccc2c1C(=O)c1cc(I)c(OCC[N+](CC)(CC)CC)c(I)c1 [Compound 2, N-ethylamiodarone, reference compound] | 128.9 ± 18.5 % of control | 95.8 ± 11.0 % of control | 97.6 ± 10.3 % of control | 1 µM | 0.17 ± 0.04 | 0.50 ± 0.03 | 0.04 ± 0.02 | NAM of mAChR efficacy |  | 
CCCCc1oc2ccccc2c1C(=O)c1cc(I)c(O)c(I)c1 [Compound 3, reference compound] | 101.8 ± 19.2 % of control | 145.4 ± 21.7 % of control | 93.4 ± 9.4 % of control | 3 µM |  |  | 0.02 ± 0.00 | completely inactive | 0.42 ± 0.00 | 0.81 ± 0.07
CCCCc1oc2ccccc2c1C(=O)c1ccc(O)cc1 [Compound 4, reference compound] | 105.7 ± 14.8 % of control | 56.7 ± 9.3 % of control | 115.8 ± 12.4 % of control | 0.3 µM | 0.49 ± 0.09 | 0.72 ± 0.04 | 0.03 ± 0.02 | completely inactive |  | 
COc1c(F)cc(CN2C(=O)C(=O)c3ccccc32)cc1F [Compound 8g, 1-(3,5-difluoro-4-methoxybenzyl)indoline-2,3-dione] |  |  |  | 30 µM |  |  | 0.03 ± 0.01 |  | 1.33 ± 0.03 | 0.94 ± 0.02
COc1ccc(CN2C(=O)C(=O)c3ccccc32)cc1F [Compound 8h, 1-(3-fluoro-4-methoxybenzyl)indoline-2,3-dione] |  |  |  | 30 µM |  |  | 0.04 ± 0.01 |  | 1.17 ± 0.02 | 1.03 ± 0.01
O=C1C(=O)N(Cc2cc(F)c(F)c(F)c2)c2ccccc21 [Compound 8i, 1-(3,4,5-trifluorobenzyl)indoline-2,3-dione] |  |  |  | 10 µM |  |  | 0.07 ± 0.01 |  | 1.39 ± 0.06 | 1.05 ± 0.02
